# Measurements: article doi:10.1101/2023.06.17.545066v1 (biorxiv, 2023)
# T1: EcL-TTD (L-tartrate dehydratase, L-TTDα + L-TTDβ) (Escherichia coli, UniProt P05847+P0AC35)
# T1 sequence (P05847 1-303): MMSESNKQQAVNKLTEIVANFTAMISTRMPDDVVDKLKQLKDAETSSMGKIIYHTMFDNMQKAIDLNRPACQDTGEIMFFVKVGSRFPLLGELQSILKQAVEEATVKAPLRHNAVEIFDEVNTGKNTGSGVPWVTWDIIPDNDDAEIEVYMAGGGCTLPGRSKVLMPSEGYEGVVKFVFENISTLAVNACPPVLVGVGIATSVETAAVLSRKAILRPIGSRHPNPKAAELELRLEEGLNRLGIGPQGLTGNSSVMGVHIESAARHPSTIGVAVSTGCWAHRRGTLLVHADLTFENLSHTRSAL
# T1 sequence (P0AC35 1-201): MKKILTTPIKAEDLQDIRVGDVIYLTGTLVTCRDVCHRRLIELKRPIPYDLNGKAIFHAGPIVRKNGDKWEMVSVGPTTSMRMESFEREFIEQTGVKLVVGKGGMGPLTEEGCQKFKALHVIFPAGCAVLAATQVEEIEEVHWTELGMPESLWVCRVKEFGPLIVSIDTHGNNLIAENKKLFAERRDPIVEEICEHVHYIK
# T2: MjFH (class-I fumarate hydratase, α + β subunits) (Methanocaldococcus jannaschii, UniProt Q58034+Q58690)
# T2 sequence (Q58690 1-285): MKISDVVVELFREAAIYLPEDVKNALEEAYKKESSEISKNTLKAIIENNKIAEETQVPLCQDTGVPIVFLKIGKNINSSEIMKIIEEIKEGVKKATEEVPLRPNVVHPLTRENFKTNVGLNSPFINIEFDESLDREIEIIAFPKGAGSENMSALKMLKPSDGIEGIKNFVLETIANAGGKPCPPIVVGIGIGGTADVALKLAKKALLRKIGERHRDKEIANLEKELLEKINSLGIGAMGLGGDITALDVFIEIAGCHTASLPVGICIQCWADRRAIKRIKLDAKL
# T2 sequence (Q58034 1-195): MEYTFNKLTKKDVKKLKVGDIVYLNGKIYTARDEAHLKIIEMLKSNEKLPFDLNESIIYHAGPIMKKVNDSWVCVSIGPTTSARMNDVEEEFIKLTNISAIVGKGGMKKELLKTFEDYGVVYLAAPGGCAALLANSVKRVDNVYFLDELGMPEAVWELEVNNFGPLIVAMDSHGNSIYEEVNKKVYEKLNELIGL
# B1: EcL-TTD (L-tartrate dehydratase, L-TTDα + L-TTDβ) (Escherichia coli K-12) (protein)
# chain 1: MMSESNKQQAVNKLTEIVANFTAMISTRMPDDVVDKLKQLKDAETSSMGKIIYHTMFDNMQKAIDLNRPACQDTGEIMFFVKVGSRFPLLGELQSILKQAVEEATVKAPLRHNAVEIFDEVNTGKNTGSGVPWVTWDIIPDNDDAEIEVYMAGGGCTLPGRSKVLMPSEGYEGVVKFVFENISTLAVNACPPVLVGVGIATSVETAAVLSRKAILRPIGSRHPNPKAAELELRLEEGLNRLGIGPQGLTGNSSVMGVHIESAARHPSTIGVAVSTGCWAHRRGTLLVHADLTFENLSHTRSAL
# chain 2: MKKILTTPIKAEDLQDIRVGDVIYLTGTLVTCRDVCHRRLIELKRPIPYDLNGKAIFHAGPIVRKNGDKWEMVSVGPTTSMRMESFEREFIEQTGVKLVVGKGGMGPLTEEGCQKFKALHVIFPAGCAVLAATQVEEIEEVHWTELGMPESLWVCRVKEFGPLIVSIDTHGNNLIAENKKLFAERRDPIVEEICEHVHYIK
# Columns and labels:
# [1] = molecular target: T1, EcL-TTD (L-tartrate dehydratase, L-TTDα + L-TTDβ); test: coupled malate dehydrogenase/NADH assay at […] nm, inhibition kinetics; assay type: biochemical
# [2] = molecular target: T2, MjFH (class-I fumarate hydratase, α + β subunits); test: fumarate formation at […] nm, inhibition kinetics; assay type: biochemical
# [3] = substrate: O=C(O)C(O)C(O)C(=O)O; test: purified protein; assay type: biochemical, Escherichia coli; conditions: 50 mM Tris-HCl pH 7.4, 37 °C, 250 μM NADH, Fe-S reconstituted
Molecule,Ki [1],Ki [2],Km [3]
O=C(O)C[C@H](O)C(=O)O [S-malate],261 ± 29 µM,,
O=C(O)C(O)C(O)C(=O)O (stereo not drawn) [meso-tartrate],149 ± 14 µM,161 ± 17 µM,
B1,,,190 ± 30 µM
